Experimental data published in US10047083B2, “Dihydropyrimidinoisoquinolinones and pharmaceutical compositions thereof for the treatment of inflammatory disorders” (GALAPAGOS NV, priority 2011, dated 2018).

Legend:
GPR84 = molecular target: T1, GPR84 (Homo sapiens, UniProt Q9NQS5); test: GTPγS binding assay (GPR84); type: biochemical; conditions: membranes from stable cell line over expressing GPR84; 3,3′ di indolylmethane at EC80
T1 construct: expressed in transfected cells; membranes used
Description: 1.1. Cell Based Assay: GTp-γS Binding Assay.
The following assay can be used for determination of GPR84 activation.
The assay is performed in a 96 well plate where the following reagents are added. […] In a last step, 30 μL of a mixture consisting of membranes-GTPγS-SpA beads is added [mixture consists of 20 μg/well membranes derived from stable cell line over expressing GPR84 (membranes are pre-incubated with 0.1 μM GDP for 15 min at 4° C.), 0.1 nM [^35S]GTPγS (Perkin Elmer, NEG030) and 0.5 mg/well PVT-WGA SpA beads (Perkin Elmer, RPNQ0001)]. All components are diluted in assay buffer containing 20 mM HEPES pH 7.4; 5 mM MgCl2; 250 mM NaCl; 0.05% BSA; 75 ug/mL saponin. Reactions are incubated for 90 min at room temperature followed by centrifugation at 2000 rpm during 15 min. Plates are read on a Topcount reader (Perkin Elmer) immediately after centrifugation (readout time, 1 min/well).

human neutrophils = test: Human neutrophil migration assay (embelin-induced); type: cell-based; conditions: neutrophils from human buffy coat, 30 min compound pre-incubation, migration towards embelin at EC80 for 1 h, ATPlite readout, read-out: human neutrophil migration inhibition (Neutrophils)
Description: 2. Cellular Assays 2.1. Human Neutrophil Migration Assay
The effect of agonists or antagonists for GPR84 can therefore be assayed in a neutrophil migration test. In the neutrophil migration assay, neutrophils, freshly isolated from buffy coats from human volunteers, are treated with a compound for 30 minutes. Subsequently, the neutrophils are transferred to the upper wells of a Corning HTS transwell 96 permeable support system, of which the lower wells are filled with a embelin solution at EC80 (concentration which gives 80% of the activity of GPR84). After 1 h of incubation, migration of the neutrophils towards embelin in the lower compartment can be quantified by measuring the ATP-content of the lower wells using the ATPlite luminescence ATP detection assay system (Perkin Elmer, Cat. No.: 436110).
A human buffy coat is diluted with an equal volume of ice cold DPBS. 20 mL of the diluted buffy coat is gently mixed with 4 mL of ACD buffer (140 mM citric acid, 200 mM sodium citrate and 220 mM dextrose). Then, 12 mL of the 6% dextran/0.9% NaCl solution (15 g dextran T2000 and 2.25 g NaCl dissolved in 250 mL H2O) is added to the mixture and the samples are inverted gently up to 20 times. The total volume was transferred to a new recipient and incubated at room temperature for 1 h for complete separation of the two phases to occur. The yellowish supernatant is then transferred to a clean centrifugation tube and centrifuged for 12 minutes at 1300 rpm and 4° C. After centrifugation, the supernatant is discarded and the remaining cell pellet is rapidly resuspended in 12 mL of ice-cold H2O for red blood cell lysis to occur. After 20 seconds, 4 mL of ice-cold 0.6 M KCl is added. Samples are mixed carefully and centrifuged for 6 minutes at 1300 rpm, 4° C. The supernatant is discarded and the red blood cell lysis procedure is repeated one more time. Subsequently, the cell pellet is resuspended in 4 mL of DPBS and layered over 5 mL of Lymphoprep (Nycomed Pharma, Cat. No.: 1114545) in a 15 mL centrifuge tube. After centrifugation for 12 min at 1300 rpm, 4° C., the supernatant is removed and the cell pellet, containing the neutrophils, is resuspended in 25 mL chemotaxis buffer (RPMI 1640 medium, supplemented with 10 mM HEPES; freshly made for each experiment)
A cell suspension of 8.9×10^6 cells per milliliter is prepared. 20 μL of compound solution in chemotaxis buffer is added to 180 μL cell suspension. The mixture is incubated at 37° C. for 30 minutes with intermediate resuspension of the cells after 15 minutes. Following this, 70 μL cell suspension is transferred to the upper compartment of a Corning HTS transwell 96 permeable support system with 5.0 μm pore size polycarbonate membrane (Corning, Cat. No.: 3387). The receiver well of the transwell system is then filled with 200 μL chemotaxis buffer containing compound and chemotactic agent (embelin). After incubation at 37° C. in 5% CO2 for 1 h, the upper plate of the transwell system is removed and the cell suspension in the receiver plate is transferred to a 96-well V-bottom plate. 50 μL of DPBS is added to the receiver plate to prevent remaining cells from drying out. The V-bottom plate is centrifuged for 6 minutes at 1500 rpm. The supernatant is removed and the cells are resuspended in 50 μL DPBS. The cells are then transferred back to the receiver plate of the transwell system. After this, 100 μL ATPlite solution (Perkin Elmer, Cat. No: 436110) was added to the cells. The plate is incubated for 10 minutes in the dark, while shaking. […] of cell lysate is then transferred to a white 96-well plate and luminescence is measured. The detected luminescent signal is considered as linearely related to the number of cells having migrated from the upper well to the receiver well.

T1 sequence (Q9NQS5 whole entry): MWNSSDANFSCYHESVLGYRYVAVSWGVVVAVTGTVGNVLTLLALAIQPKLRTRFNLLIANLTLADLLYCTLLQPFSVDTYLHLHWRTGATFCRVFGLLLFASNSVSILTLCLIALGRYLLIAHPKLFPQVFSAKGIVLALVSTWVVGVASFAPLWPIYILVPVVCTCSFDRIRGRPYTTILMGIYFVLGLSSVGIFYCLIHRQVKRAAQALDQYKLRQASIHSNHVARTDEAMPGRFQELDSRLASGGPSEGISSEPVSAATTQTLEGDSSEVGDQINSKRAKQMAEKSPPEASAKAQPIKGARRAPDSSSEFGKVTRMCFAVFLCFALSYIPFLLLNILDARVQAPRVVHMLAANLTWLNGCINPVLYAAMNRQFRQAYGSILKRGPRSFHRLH

Row | SMILES | IC50 (GPR84) [nM] | IC50 (human neutrophils) [nM]
1 | CCCCCc1ccc2c(c1)CCn1c-2cc(OC[C@H]2COCCO2)nc1=O [Compound 121, 2-((R)-1-[1,4]dioxan-2-ylmethoxy)-9-pentyl-6,7-dihydro-pyrimido[6,1-a]isoquinolin-4-one] | 0.01 to 100 | 101 to 500
2 | CCOc1ncccc1-c1ccc2c(c1)CCn1c-2cc(OCC2COCCO2)nc1=O (centres unmarked) [Compound 69, 2-([1,4]dioxan-2-ylmethoxy)-9-(2-ethoxy-pyridin-3-yl)-6,7-dihydro-pyrimido[6,1-a]isoquinolin-4-one] | 0.01 to 100 | 0.01 to 100
3 | O=c1nc(OC[C@H]2COCCO2)cc2n1CCc1cc(C#CC3CC3)ccc1-2 [Compound 111, 9-cyclopropylethynyl-2-((R)-1-[1,4]dioxan-2-ylmethoxy)-6,7-dihydro-pyrimido[6,1-a]isoquinolin-4-one] |  | 0.01 to 100
4 | COc1ccccc1-c1ccc2c(c1)CCn1c-2cc(OCC2COCCO2)nc1=O (centres unmarked) [Compound 23, 2-([1,4]dioxan-2-ylmethoxy)-9-(2-methoxy-phenyl)-6,7-dihydro-pyrimido[6,1-a]isoquinolin-4-one] |  | 101 to 500
5 | CCCC#Cc1ccc2c(c1)CCn1c-2cc(OCC2COCCO2)nc1=O (centres unmarked) [Compound 19, 2-([1,4]dioxan-2-ylmethoxy)-9-pent-1-ynyl-6,7-dihydro-pyrimido[6,1-a]isoquinolin-4-one] |  | 0.01 to 100
6 | CN(CC#Cc1ccc2c(c1)CCn1c-2cc(OCC2COCCO2)nc1=O)Cc1ccccc1 (centres unmarked) [Compound 85, 9-[3-(benzyl-methyl-amino)-prop-1-ynyl]-2-([1,4]dioxan-2-ylmethoxy)-6,7-dihydro-pyrimido[6,1-a]isoquinolin-4-one] |  | 0.01 to 100
7 | O=c1nc(OCC2COCCO2)cc2n1CCc1cc(C#CC3CC3)ccc1-2 (centres unmarked) [Compound 30, 9-cyclopropylethynyl-2-([1,4]dioxan-2-ylmethoxy)-6,7-dihydro-pyrimido[6,1-a]isoquinolin-4-one] |  | 0.01 to 100
8 | CC(C)(C)c1nc(COc2ccc3c(c2)CCn2c-3cc(OCC3COCCO3)nc2=O)no1 (centres unmarked) [Compound 17, 9-(5-tert-butyl-[1,2,4]oxadiazol-3-ylmethoxy)-2-([1,4]dioxan-2-ylmethoxy)-6,7-dihydro-pyrimido[6,1-a]isoquinolin-4-one] |  | 0.01 to 100
9 | CC(O)(C#Cc1ccc2c(c1)CCn1c-2cc(OCC2COCCO2)nc1=O)c1ccccc1 (centres unmarked) [Compound 92, 2-([1,4]dioxan-2-ylmethoxy)-9-(3-hydroxy-3-phenyl-but-1-ynyl)-6,7-dihydro-pyrimido[6,1-a]isoquinolin-4-one] |  | 0.01 to 100
10 | Cn1ccc2cc(-c3ccc4c(c3)CCn3c-4cc(OCC4COCCO4)nc3=O)ccc21 (centres unmarked) [Compound 34, 2-([1,4]dioxan-2-ylmethoxy)-9-(1-methyl-1H-indol-5-yl)-6,7-dihydro-pyrimido[6,1-a]isoquinolin-4-one] |  | 0.01 to 100
11 | O=c1nc(OCC2COCCO2)cc2n1CCc1cc(-c3ccc4[nH]ccc4c3)ccc1-2 (centres unmarked) [Compound 22, 2-([1,4]dioxan-2-ylmethoxy)-9-(1H-indol-5-yl)-6,7-dihydro-pyrimido[6,1-a]isoquinolin-4-one] |  | 0.01 to 100
12 | Cc1ccc(-c2ccc3c(c2)CCn2c-3cc(OCC3COCCO3)nc2=O)cn1 (centres unmarked) [Compound 35, 2-([1,4]dioxan-2-ylmethoxy)-9-(6-methyl-pyridin-3-yl)-6,7-dihydro-pyrimido[6,1-a]isoquinolin-4-one] |  | 101 to 500
13 | N#Cc1ccccc1-c1ccc2c(c1)CCn1c-2cc(OCC2COCCO2)nc1=O (centres unmarked) [Compound 4, 2-[2-([1,4]dioxan-2-ylmethoxy)-4-oxo-6,7-dihydro-4H-pyrimido[6,1-a]isoquinolin-9-yl]-benzonitrile] |  | 101 to 500
14 | O=c1nc(OCC2COCCO2)cc2n1CCc1cc(CCc3ccccn3)ccc1-2 (centres unmarked) [Compound 20, 2-([1,4]dioxan-2-ylmethoxy)-9-(2-pyridin-2-yl-ethyl)-6,7-dihydro-pyrimido[6,1-a]isoquinolin-4-one] |  | 0.01 to 100
15 | O=c1nc(OC[C@@H]2COCCO2)cc2n1CCc1cc(C#CC3CC3)ccc1-2 [Compound 122, 9-cyclopropylethynyl-2-((S)-1-[1,4]dioxan-2-ylmethoxy)-6,7-dihydro-pyrimido[6,1-a]isoquinolin-4-one] |  | 0.01 to 100
16 | O=c1nc(OC[C@@H]2COCCO2)cc2n1CCc1cc(COC3CCCCC3)ccc1-2 [Compound 137, 9-cyclohexyloxymethyl-2-((S)-1-[1,4]dioxan-2-ylmethoxy)-6,7-dihydro-pyrimido[6,1-a]isoquinolin-4-one] | 0.01 to 100 | 
17 | COc1nccc(-c2ccc3c(c2)CCn2c-3cc(OCC3COCCO3)nc2=O)c1Cl (centres unmarked) [Compound 64, 9-(3-chloro-2-methoxy-pyridin-4-yl)-2-([1,4]dioxan-2-ylmethoxy)-6,7-dihydro-pyrimido[6,1-a]isoquinolin-4-one] | 101 to 500 | 
18 | C#Cc1ccc2c(c1)CCn1c-2cc(OCC2COCCO2)nc1=O (centres unmarked) [Compound 105, 2-([1,4]dioxan-2-ylmethoxy)-9-ethynyl-6,7-dihydro-pyrimido[6,1-a]isoquinolin-4-one] | 101 to 500 | 
19 | O=c1nc(OC[C@@H]2COCCO2)cc2n1CCc1cc(OCCF)ccc1-2 [Compound 132, 2-((S)-1-[1,4]dioxan-2-ylmethoxy)-9-(2-fluoro-ethoxy)-6,7-dihydro-pyrimido[6,1-a]isoquinolin-4-one] | 501 to 1000 | 
20 | O=c1nc(OCC2COCCO2)cc2n1CCc1cc(C#CCNCc3ccccc3)ccc1-2 (centres unmarked) [Compound 93, 9-(3-benzylamino-prop-1-ynyl)-2-([1,4]dioxan-2-ylmethoxy)-6,7-dihydro-pyrimido[6,1-a]isoquinolin-4-one] | 0.01 to 100 | 
21 | CC1(COCc2ccc3c(c2)CCn2c-3cc(OC[C@@H]3COCCO3)nc2=O)COC1 [Compound 125, 2-((S)-1-[1,4]dioxan-2-ylmethoxy)-9-(3-methyl-oxetan-3-ylmethoxymethyl)-6,7-dihydro-pyrimido[6,1-a]isoquinolin-4-one] | 501 to 1000 | 
22 | O=c1nc(OCC2COCCO2)cc2n1CCc1cc(-c3ccc(N4CCCC4)nc3)ccc1-2 (centres unmarked) [Compound 74, 2-([1,4]dioxan-2-ylmethoxy)-9-(6-pyrrolidin-1-yl-pyridin-3-yl)-6,7-dihydro-pyrimido[6,1-a]isoquinolin-4-one] | 0.01 to 100 | 
23 | O=c1nc(OCC2COCCO2)cc2n1CCc1cc(C3=CCOCC3)ccc1-2 (centres unmarked) [Compound 58, 9-(3,6-dihydro-2H-pyran-4-yl)-2-([1,4]dioxan-2-ylmethoxy)-6,7-dihydro-pyrimido[6,1-a]isoquinolin-4-one] | 101 to 500 | 
24 | O=c1nc(OCC2COCCO2)cc2n1CCc1cc(OCc3ncc(-c4ccccc4)o3)ccc1-2 (centres unmarked) [Compound 75, 2-([1,4]dioxan-2-ylmethoxy)-9-(5-phenyl-oxazol-2-ylmethoxy)-6,7-dihydro-pyrimido[6,1-a]isoquinolin-4-one] | 0.01 to 100 | 
